“And” between values parts separate entries of the source, which are not always exact repeats. Equal entries are not always repeated.

Usually IC50 stands for the midpoint of a concentration-inhibition curve. A word on the AC50: it is the midpoint of the concentration-response curve, whichever way the signal moves.

One data set concerns Leukemia K562 cell. Briefly: Leukemia K562 cell proliferation/viability assay (CellTiterGlo, 48 hours). It counts as cell-based. On the set-up: unit not given here. The conditions noted are these: K562 cells. The essentials:
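BCR-Abl-dependent K562 cells treated with compound for 48 hours in an HTS-adapted format. Viability read out with CellTiterGlo reagent.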
Background: ATP-based viability assays read luminescence as a measure of living cells.

Data set [1] relates to P. falciparum strain NF54 asexual parasites. Description: Asexual stage parasite growth inhibition, SYBR Green assay, 72 hours. It counts as cell-based. The conditions noted are these: for % Killing / IC50: NF54, 72 hours; for IC50: Plasmodium falciparum. On the procedure:
In this example, several of the c-Abl inhibitors were tested in the asexual […] strain of P. falciparum parasites for activity against malaria. […] The pre-diluted parasites were dispensed into a 1536-well plate (2.5 μL/well). […] The fluorescence of each well was measured at 520 nm following excitation at 490 nm using a ViewLux platereader (PerkinElmer).

Data set [2] in a line: Blood and serum analysis after one month of supplemented diet. It counts as in vivo, mice (C57BL/6×C3H). Particulars: 1 month diet (Nilotinib 200 ppm; NCGC00373060 67 ppm), individual mice. An excerpt: After this one-month period, blood and serum was obtained from the mice and analyzed.
The nature of data set [3]: Body weight during supplemented diet in TLE mice study. The format is in vivo, mice (C57BL/6). Here is the method:
(§1) In this example, the ability of compound embodiments of the present disclosure to increase survival and diminish seizure symptoms in a TLE mice model was evaluated. […] The animals' weights were determined the week before and during the two weeks of c-Abl inhibitors treatment (results are provided in Table 12 and are illustrated graphically in FIG. 28). After 15 days of feeding, status epilepticus (SE) induction was evaluated. The mice were IP injected with Scopolamine (1.5 mg/Kg) and after 15 minutes, the SE was induced by IP injection of Pilocarpine (420 mg/Kg). The animals' behavior and the seizures induction was evaluated according to Racine's scale and the survival was determined during 60 minutes post-SE induction. […] Results are tabulated in Table 13, below and also are illustrated graphically in FIGS. 29A-29D.

For another data set, the system named is TLE mice model. Description: Pilocarpine-induced status epilepticus (SE) after 15 days of supplemented diet. It counts as in vivo, mice (C57BL/6). On the set-up: Survival % / Survival %, mean: concentration or dose not given beside the values. Here is the method: as §1
The next data set has as its system neurons. Briefly: Apoptotic nuclei induced by Aβ fibrils, Hoescht staining. It counts as cell-based. On the procedure:
Additional results from another compound embodiment, NCGC00355553, are provided by FIG. 9C. Apoptotic nuclei were evaluated by Hoescht staining.

A further data set relates to APP/PSEN1 mice. Description: APP/PSEN1 AD mice model, water maze, Barnes maze and brain histology. Particulars: water maze.
Another data set relates to CML (K562) cell line. Description: K562 cell proliferation inhibition by MTT assay, 48 hours. The format is cell-based. Particulars: K562, 48 hours. Here is the method:
In this example, the ability of two compound embodiments described here, NCGC00373060 and NCGC00373056, to induce cell death in the CML (K562) cell line was evaluated. The leukemia cells were incubated with different concentrations of the compounds for 48 hours, and the cell proliferation inhibition was evaluated by the MTT assay. […] The leukemia cells were incubated with different concentrations of each compound embodiment for 48 hours, and the cell proliferation inhibition was evaluated by the MTT assay.
For orientation: Tetrazolium dyes change colour on reduction, which living cells bring about.

A short description of data set [4]: Pharmacokinetic profile in plasma. The conditions noted are these: 12.5 mg/kg IP. The format is in vivo, mice.
Data set [5] is described as follows: Pharmacokinetic profile in brain. It counts as in vivo, mice. The conditions noted are these: 12.5 mg/kg IP.
In another data set the test system is hippocampal neurons. Briefly: Neuroprotection against Aβ fibrils, MTT assay. The format is cell-based. Particulars: 0.01, 0.1 and 1 μM; 5 μM Aβ peptide, 24 hours. Here is the method: Compound embodiments NCGC00373060 and NCGC00373056 also conferred neuroprotection against Aβ fibrils. […] Additional data from other compounds are provided by FIGS. 8C-8E. Neurons were incubated with 5 μM Aβ peptide in presence of the different compound concentrations for 24 hours and cell viability was evaluated by the MTT assay. Results from additional compounds are provided by FIG. 8C.

In a further data set the test system is 5XFAD mice. Description: 5XFAD AD mice model, water maze and amyloid burden. The format is in vivo. The conditions noted are these: 9-month-old 5XFAD mice, 12.5 mg/kg daily for 30 days, IP. An excerpt:
. First, the 5XFAD mice was used as the AD model. […] .

Data set [6] has as its system ShSy5y neuroblastome cells. Briefly: Cholesterol accumulation induced by U18666, Filipin or PFO-GST staining. It counts as cell-based. The conditions noted are these: U18 0.5 μg/ml 24 hours; NCGC00373060 0.1 and 0.01 μM, Imatinib 10 uM. Here is the method: Cells were fixed and then stained with Filipin Staining. […] Cells were fixed and a PFO-GST immunofluorescence was performed.

Where [7] appears, read: individual mice, diet 67 ppm NCGC00373060 or 200 ppm Nilotinib.
The mark [8] stands for this setting: mean, diet 67 ppm NCGC00373060 or 200 ppm Nilotinib.

Description for APP/PSEN1 mice: The Barnes maze test is a more sensible test that detects the earlier and subtle cognitive alterations.

Consider `Cc1cn(-c2cc(NC(=O)c3ccc(C)c(Nc4nccc(-c5cccnc5)n4)c3)cc(C(F)(F)F)c2)cn1` [Nilotinib], for which the Efficacy in the data set on Leukemia K562 cell is reported as −86.5. Also, in data set [1], the “% Killing” value turned out to be 98.7% and the IC50 is 648 nM. For the same molecule, in data set [2], the ALT is 36.0 IU/L and 26.0 IU/L; the AST is 142.0 IU/L and 114.0 IU/L; the Alkaline phosphatase is 386.4 IU/ and 278.2 IU/; the “Bacilliformes” value stood at 0 µL⁻¹. Also, in [2], the “Bacilliformres (%)” value was determined as 0%; the Blastos was found to be 0 µL⁻¹; the Blood urea nitrogen was 19.7 mg/dL and 18.2 mg/dL; the C.H.C.M. was 29.3 g/dL and 28.9 g/dL. For the same molecule, in data set [2], the Calcium is 10.4 mg/dL and 10.2 mg/dL; the Creatinine was 1.0 mg/dL and 0.8 mg/dL; the “Eosinophils” value is 32 µL⁻¹ and 0 µL⁻¹; the “Eosinophils (%)” value was 1% and 0%. Further, in [2], the Erythrocytes is 5.9e+06 µL⁻¹ and 8.6e+06 µL⁻¹; the “Glucose (without fluoride)” value is 84.0 mg/dL and 56.0 mg/dL; the H.C.M. is 14.9 pg/cel and 14.7 pg/cel; the Hematocrit is 30.0% and 43.6%. Moreover, in [2], the Hemoglobin is 8.8 g/dL and 12.6 g/dL; the Juvenile came out at 0 µL⁻¹; the Leukocytes is 3,200 /μL and 3,300 /μL; the “Lymphocytes (%)” value was 60% and 62%. Besides, in data set [2], the Mean platelet vol. is 6.9 fL and 6.1 fL; the “Monocytes (%)” value was 4% and 15%; the Morphology leukocytes result was “Normal”; the Myelocytes came out at 0 µL⁻¹. In addition, in data set [2], the “Reticulocytes (%)” value is 0.5% and 0.6%; the “Reticulocytes (×10^3/μL)” value was 29.6 ×10^3/μL and 51.3 ×10^3/μL; the “Segmented” value worked out at 759 µL; the “Segmented (%)” value was 35% and 23%. Also, in [2], the “Segmented (μL)” value is reported as 1,120 μL; the Thrombocyte morphology result is “Normal”; the Thrombocytes was 780,000 /μL and 689,000 /μL; the Total cholesterol is 114.0 mg/dL and 84.0 mg/dL. Also, in data set [2], the V.C.M. is 50.8 fL and 51.0 fL; the V.H.S. is 3.0 and 6.0; the Weight was 42.7 g and 25.2 g; the “Youth (%)” value came to 0%. In [2] (absolute count), the Lymphocytes is 1,920 and 2,046; the Monocytes is 128 and 495. Further, in data set [3] (setting [7]), the “Body weight week 4” value is 17 gr (2×) and 19 gr and 15 gr (2×) and 14 gr (2×) and 18 gr (2×); the “Body weight week 5” value was 18 gr (3×) and 21 gr and 17 gr and 19 gr and 16 gr and 20 gr (2×). Moreover, the “Body weight week 3” value in data set [3] (individual mice, week before diet (67 ppm NCGC00373060 or 200 ppm Nilotinib)) is 15 gr (2×) and 18 gr and 11 gr and 9 gr (2×) and 12 gr and 14 gr and 16 gr. In [3] (setting [8]), the “Body weight week 4, mean” value came out at 16 gr and the “Body weight week 5, mean” value is on record as 19 gr. Moreover, the “Body weight week 3, mean” value in data set [3] (mean, week before diet (67 ppm NCGC00373060 or 200 ppm Nilotinib)) was 13 gr. In the data set on TLE mice model (individual mice, 60 minutes post-SE induction), the Survival % is listed as 100%. In the data set on TLE mice model (setting [7]), the “Latency SE” value was 30 min and 22 min. Besides, the “Survival %, mean” value with TLE mice model (mean, 60 minutes post-SE induction) is 100%. Besides, in the data set on TLE mice model (setting [8]), the “Latency SE, mean” value came to 26 min and the “SE %, mean” value is 40%.

On to `O=C1Nc2cc(OC(F)(F)F)ccc2Nc2ccc(-c3cn[nH]c3)cc21` [NCGC00355553, 2-(1H-Pyrazol-4-yl)-8-(trifluoromethoxy)-5,10-dihydro-1-dibenzo[b,e][1,4]diazepin-11-one], for which the “apoptotic nuclei induced by Aβ fibrils” value in the data set on neurons is “prevent increases in apoptotic nuclei induced by Aβ fibrils”.

The molecule `CS(=O)(=O)Nc1cccc(-c2ccc3c(c2)C(=O)Nc2cc(OC(F)(F)F)ccc2N3)c1` [NCGC00355551, N-(3-(11-Oxo-8-(trifluoromethoxy)-10,11-dihydro-5H-dibenzo[b,e][1,4]diazepin-2-yl)phenyl)methanesulfonamide] showed an Efficacy in the data set on Leukemia K562 cell of −85.3. Further, the “cognitive decline in APP/PSEN1 mice” value with APP/PSEN1 mice is listed as “protects APP/PSEN1 mice against cognitive decline”.

As for `CNS(=O)(=O)c1cccc(-c2ccc3c(c2)C(=O)Nc2cc(OC(F)(F)F)ccc2O3)c1` [NCGC00373056, N-Methyl-3-(11-oxo-8-(trifluoromethoxy)-10H-dihydrodibenzo[b,f][1,4]oxazepin-2-yl)benzenesulfonamide], the Efficacy in the data set on Leukemia K562 cell is −78.5. This molecule had an AC50 with CML (K562) cell line (Homo sapiens, determined in different assays) of 500 nM. The “induction of cell death” value in the data set on CML (K562) cell line (MTT) is reported as “able to induce cell death”. The “activity against malaria parasites” value in data set [1] (NF54) is “low single digit uM range”. In addition, the “% Killing” value in [1] was 96.5%. The molecule also yielded an IC50 in data set [1] of 1360 nM. Moreover, the Plasma concentration came to 12.080 µM in [4] (Time 0.083); 16.961 µM in data set [4] (Time 0.25); 16.559 µM in data set [4] (Time 0.5); 8.627 µM in [4] (Time 1); 6.747 µM in [4] (Time 2); 2.600 µM in [4] (Time 4). For the same molecule, the Plasma concentration in data set [4] (Time 7) is 0.421 µM; in [4] (Time 24) it was 0.009 µM. Also, the Brain concentration was 1.291 µmol/kg in [5] (Time 0.083); 2.649 µmol/kg in data set [5] (Time 0.25); 2.658 µmol/kg in data set [5] (Time 0.5); 3.381 µmol/kg in data set [5] (Time 1); 2.212 µmol/kg in [5] (Time 2); 1.065 µmol/kg in data set [5] (Time 4). For the same molecule, the Brain concentration is 0.202 µmol/kg in data set [5] (Time 7) and 0.004 µmol/kg in [5] (Time 24). Besides, the “neuroprotection against Aβ toxicity” value in the data set with hippocampal neurons was “protect neurons against the Aβ toxicity”. Moreover, in the data set on neurons, the “apoptotic nuclei induced by Aβ fibrils” value was “prevention of the increases in apoptotic nuclei induced by Aβ fibrils”. In addition, in the data set with 5XFAD mice, the “cognitive decline, water maze” value is reported as “protected 5XFAD mice against the cognitive decline”.

`Cc1ccc(NC(=O)c2ccc(CN3CCN(C)CC3)cc2)cc1Nc1nccc(-c2cccnc2)n1` [Imatinib]: the Efficacy in the data set with Leukemia K562 cell was −105.5. The “% Killing” value in [1] was 111.0%. Besides, in data set [6], the cholesterol accumulation entry is listed as “decreased the cholesterol accumulation”.

(Values after patent publication US11649218B2, “C-Abl tyrosine kinase inhibitory compound embodiments and methods of making and using the same” (The USA, as represented by the Secretary, Dept. of Health …, priority 2018, dated 2023).)
